Toxic doses and inconclusive results are not listed. Rule for the calls: active = survival T/C of 150% or more; inactive = T/C below 125% in these data. Numbered stars: 1 amine (or outer) side, 2 acyl side, 3 side chain; on linkers, the order of the positions; unused ones are H or OH. Bridge positions count the residues as written; N and C are the ends. Square brackets hold non-standard residues; d marks the D form. Peptide text beside a SMILES is read from it. I, II: the chains in the order shown. Actinocin(9to1) = Cc1c2oc3c(C)ccc(C(=O)[*:1])c3nc-2c(C(=O)[*:2])c(N)c1=O; aThr = C[C@H](O)[C@H](N)C(=O)O; NMeV = CN[C@H](C(=O)O)C(C)C; Sar = CNCC(=O)O
System: BDF1 mice, L1210 leukemia sc, survival T/C
Test: NCI In Vivo Anticancer Drug Screen. Data for tumor model L1210 Leukemia (subcutaneous) in B6D2F1 (BDF1) mice
Details: endpoint: median survival time, higher = longer survival
Summary of the method: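 Transplantable tumor-bearing mice; survival or tumor size recorded; result = T/C, treated vs vehicle control.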

Measured: T/C

CC(C)CSc1nc(N)nc2nc[nH]c12
inactive: dose: 14.0 mg/kg/injection, schedule: Q01DX Z (sc), vehicle: methylcellulose (MC) 100 % of control | dose: 23.0 mg/kg/injection, schedule: Q01DX Z (sc), vehicle: methylcellulose (MC) 105 % of control | dose: 39.0 mg/kg/injection, schedule: Q01DX Z (sc), vehicle: methylcellulose (MC) 111 % of control | dose: 65.0 mg/kg/injection, schedule: Q01DX Z (sc), vehicle: methylcellulose (MC) 111 % of control | dose: 108.0 mg/kg/injection, schedule: Q01DX Z (sc), vehicle: methylcellulose (MC) 111 % of control | dose: 180.0 mg/kg/injection, schedule: Q01DX Z (sc), vehicle: methylcellulose (MC) 116 % of control | dose: 300.0 mg/kg/injection, schedule: Q01DX Z (sc), vehicle: methylcellulose (MC) 111 % of control

Cn1cc(NC(=O)c2cc(NC(=O)CN=C(N)N)cn2C)cc1C(=O)NCCC(=N)N
inactive: dose: 6.0 mg/kg/injection, schedule: Q01DX Z (sc), vehicle: methylcellulose (MC) 100 % of control | dose: 12.0 mg/kg/injection, schedule: Q01DX Z (sc), vehicle: methylcellulose (MC) 100 % of control | dose: 24.0 mg/kg/injection, schedule: Q01DX Z (sc), vehicle: methylcellulose (MC) 100 % of control

Cc1c2oc3c(C)ccc(C(=O)N[C@@H]4C(=O)N[C@H](C(C)C)C(=O)N5CCC[C@H]5C(=O)N(C)CC(=O)N(C)[C@@H](C(C)C)C(=O)O[C@H]4C)c3nc-2c(C(=O)N[C@@H]2C(=O)N[C@H](C(C)C)C(=O)N3CCC[C@H]3C(=O)N(C)CC(=O)N(C)[C@@H](C(C)C)C(=O)O[C@H]2C)c(N)c1=O (I: [aThr][dV]P[Sar][NMeV] / II: [aThr][dV]P[Sar][NMeV]; ester I:1-I:C, II:1-II:C; linker I:N-II:N via Actinocin(9to1))
inactive: dose: 0.07 mg/kg/injection, schedule: Q01DX009 (sc), vehicle: saline 95 % of control | dose: 0.07 mg/kg/injection, schedule: Q01DX Z (sc), vehicle: saline 110 % of control | dose: 0.15 mg/kg/injection, schedule: Q01DX009 (sc), vehicle: saline 103 % of control | dose: 0.3 mg/kg/injection, schedule: Q01DX009 (sc), vehicle: saline 106 % of control | dose: 0.52 mg/kg/injection, schedule: Q01DX Z (sc), vehicle: saline 120 % of control | dose: 0.86 mg/kg/injection, schedule: Q01DX Z (sc), vehicle: saline 120 % of control

CN(C)c1ccc(/C=C/c2cc[n+](C)c3ccccc23)cc1
inactive: dose: 0.65 mg/kg/injection, schedule: Q01DX Z (sc), vehicle: methylcellulose (MC) 109 % of control | dose: 1.08 mg/kg/injection, schedule: Q01DX Z (sc), vehicle: methylcellulose (MC) 109 % of control | dose: 1.8 mg/kg/injection, schedule: Q01DX Z (sc), vehicle: methylcellulose (MC) 109 % of control | dose: 3.0 mg/kg/injection, schedule: Q01DX Z (sc), vehicle: methylcellulose (MC) 109 % of control
